Molecules are shown by their SMILES. Several values for one entry are separate records, joined by “and”; a condition that tells them apart may be missing. Identical values can stand only once.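 Assay format: 96-well plates, 48-hour exposure. GI50 marks 50% less growth. At the TGI there is no net growth.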 Bounds are passed on as bounds.

Our source for the GI50 and TGI values is PubChem BioAssay (NCI).

Among the test systems are PC-3 prostate; MDA-N; HOP-18 NSCLC; M19-MEL melanoma; DLD-1 colon; LXFL 529 NSCLC; XF 498 CNS; SNB-78 CNS; RXF-631 renal.
What all share (assay): NCI tumour cell line growth inhibition, 48 h

As for `CC1=C(SCCC(=O)OC(C[Se]C2=C(C)C(=O)c3ccccc3C2=O)C(=O)NCCCCCC(=O)OCc2ccccc2)C(=O)c2ccccc2C1=O` (stereo unspecified), in the assay on PC-3 prostate, the GI50 was 2550 nM and the TGI was found to be 9.13 µM.

Take `O=C(/C=C\c1ccc([N+](=O)[O-])cc1)c1ccccc(=O)c1O`: the TGI in the assay on PC-3 prostate was 9.84 µM; in the assay on MDA-N, over 30.5 µM.

Turning to `O=C1C(c2ccc(Br)cc2)=[N+]([O-])c2ccccc21`, the TGI in the assay with HOP-18 NSCLC stood at 27.3 µM; with M19-MEL melanoma it was 22.3 µM; in the assay with DLD-1 colon it was 25 µM; in the assay with LXFL 529 NSCLC it was 18.8 µM; in the assay on XF 498 CNS, 31.3 µM.

For the molecule `COc1ccc(C/C(=C(\C)c2ccc(OCCN3CCCC3)cc2)c2ccc(OCCN3CCCC3)cc2)cc1`, in the assay on PC-3 prostate, the GI50 is 1750 nM and the TGI turned out to be 4.07 µM.

Turning to `CC(C)(C)C1CCC2c3c([nH]c4ccccc34)C3C(=O)N(c4ccc(Cl)cc4)C(=O)C3C2C1` (stereo unspecified), in the assay with PC-3 prostate, the GI50 was 37400 nM and > 10000 nM; the TGI is over 100 µM. Besides, in the assay with MDA-N, the GI50 was 94.9 µM and > 10 µM; the TGI was over 100 µM.

Consider `N/C(=N\N=C\c1ccc(C(F)(F)F)cc1)NO`, for which the TGI in the assay with M19-MEL melanoma was over 100 µM; in the assay on DLD-1 colon it was over 100 µM; in the assay with LXFL 529 NSCLC, over 100 µM; in the assay on SNB-78 CNS, over 100 µM; with XF 498 CNS, 51 µM.

With `Nc1ccc(C2=CC(c3ccc(Cl)cc3)N3C=CSC3=N2)cc1` (stereo unspecified), in the assay with PC-3 prostate, the GI50 is 8800 nM and the TGI is over 100 µM.

In the case of `COC(=O)N/N=C(\C)c1c(O)cc(C)oc1=O`, the TGI is over 100 µM in the assay with DLD-1 colon, 45.5 µM in the assay with LXFL 529 NSCLC, over 100 µM with RXF-631 renal and over 100 µM in the assay with SNB-78 CNS.

In the case of `COc1cc(/C=N/Nc2ncnc3c2cnn3-c2ccccc2)ccc1O`, in the assay on PC-3 prostate, the GI50 was 5240 nM and the TGI was over 25 µM.

For `O=[N+]([O-])C=C(c1ccc(Cl)cc1)c1ccc(Cl)cc1`, the TGI in the assay with DLD-1 colon was found to be 32 µM; in the assay on LXFL 529 NSCLC it was 28.5 µM; in the assay on SNB-78 CNS it was 44 µM.

As for `O=C(CCCN1CCC(O)(c2ccc(Cl)cc2)CC1)c1ccc(F)cc1`, the TGI in the assay with PC-3 prostate was over 100 µM.

For `COc1ccc(-c2nc(-c3ccc(C)cc3)cn3ccnc23)cc1`, in the assay with PC-3 prostate, the GI50 is 4440 nM and the TGI is over 50 µM.

In the case of `CCC(C)Nc1ccc(N)cc1` (stereo unspecified), in the assay on PC-3 prostate, the GI50 is 2560 nM and the TGI amounted to 11.2 µM.

Turning to `CCOC(=O)Oc1cc2c(c(OC)c1OC)-c1ccc(OC)c(=O)cc1C(NC(C)=O)CC2` (stereo unspecified), the TGI with HOP-18 NSCLC was over 100 µM; in the assay with M19-MEL melanoma, over 100 µM; in the assay on LXFL 529 NSCLC, over 100 µM; with RXF-631 renal, over 22.5 µM; in the assay on PC-3 prostate it was over 100 µM; in the assay on SNB-78 CNS, over 100 µM. Besides, the TGI in the assay on MDA-N is under 0.0216 µM; with XF 498 CNS it was over 100 µM.

For the molecule `COc1ccc(/C(COc2ccc3oc(-c4ccccc4)cc(=O)c3c2)=N\O)cc1`, in the assay on PC-3 prostate, the GI50 was 202 nM and the TGI is over 19.2 µM.

For the molecule `CNC(=O)c1cc(Oc2ccc(NC(=O)Nc3ccc(Cl)c(C(F)(F)F)c3)c(F)c2)ccn1`, in the assay on PC-3 prostate, the GI50 is 2820 nM and 2700 nM; the TGI is over 64.6 µM.

Regarding `COc1cccc(CC(C)=C(c2ccc(OCCN3CCCCC3)cc2)c2ccc(OCCN3CCCCC3)cc2)c1`, in the assay with PC-3 prostate, the GI50 is 1830 nM and the TGI was found to be 3.75 µM.

Turning to `COc1ccc(CN2c3ccccc3Sc3ccccc32)c(C(F)(F)F)c1`, in the assay with PC-3 prostate, the GI50 is 546 nM and the TGI is over 100 µM.

Turning to `CC(C)(C)c1ccc(Oc2ccc(N)cn2)cc1`, in the assay with PC-3 prostate, the GI50 is 8020 nM and the TGI was over 100 µM.

Consider `O=C(O)[C@H](NS(=O)(=O)c1ccc(F)cc1)c1ccccc1`, for which the TGI in the assay on HOP-18 NSCLC, in the assay on M19-MEL melanoma, in the assay on DLD-1 colon, with LXFL 529 NSCLC, in the assay with SNB-78 CNS and in the assay with XF 498 CNS was over 100 µM each time.

As for `Cc1ccc(/C=N/Nc2nc(Nc3ccccc3)nc(-n3nc(C)cc3C)n2)cc1`, in the assay on PC-3 prostate, the GI50 was 2670 nM and the TGI is 23.6 µM.

On to `Cc1csc2[n+]1-c1ccccc1N(C(=O)Nc1ccccc1)C(C)C2` (stereo unspecified), for which, in the assay with PC-3 prostate, the GI50 was 59100 nM and the TGI is over 100 µM.

In turn, `COc1ccc(Cc2coc3ccccc3c2=O)cc1OC` yielded a TGI in the assay on PC-3 prostate of over 100 µM.

As to `c1ccc(C2OC3(CCC[C@H]4C[C@H]43)O[C@H]2c2ccccc2)cc1` (stereo partly specified), the TGI was 84.8 µM in the assay with M19-MEL melanoma; over 100 µM in the assay with DLD-1 colon; over 100 µM in the assay with RXF-631 renal; over 100 µM in the assay with SNB-78 CNS; 43.8 µM in the assay with XF 498 CNS.

As to `CC1(C)CNc2cc(NC(=O)c3cccnc3NCc3ccncc3)ccc21`, in the assay on PC-3 prostate, the GI50 was 25400 nM and the TGI was over 100 µM.

Turning to `C=C/C=C/[C@@H](O)CC(=C)C[C@H]1OC2[C@H](C)[C@@H](OC(=O)C[C@H]3C[C@H](OC(C)=O)C[C@@]4(C[C@@](C)(O)C[C@H](CC(=C)[C@@H](C)[C@H](OC(C)=O)[C@H](C)C(=O)C[C@@H]5C[C@H](OC)CC6(C[C@@H](O)C[C@H](/C=C\CCC[C@H]7O[C@](O)(C=C[C@H]7C)[C@H]2O)O6)O5)O4)O3)[C@@H]1O`, in the assay on PC-3 prostate, the GI50 was 2.5 nM and the TGI is over 25 µM.

On to `O=S(=O)(O)c1cc(O)c(N=Nc2ccc(O)cc2O)c2ccccc12`, for which the TGI in the assay with PC-3 prostate and with MDA-N was over 100 µM in each case.

As for `CCCCCCCCCCCCCC[N+](C)(C)CCCCCCCCCCCCCC`, in the assay with PC-3 prostate, the GI50 was 1850 nM and the TGI was determined as 4.45 µM.

For `CC1=C(C(=O)Nc2ccccc2)C(c2cccc3ccccc23)C(C(=O)Nc2ccccc2)=C(C)N1`, the TGI in the assay on HOP-18 NSCLC was 46.8 µM; in the assay on M19-MEL melanoma it was 34.5 µM; in the assay on DLD-1 colon it was over 100 µM; with LXFL 529 NSCLC it was 34.4 µM; in the assay with SNB-78 CNS it was 94.3 µM.

For the molecule `COc1ccc2c3c([nH]c2c1[N+](=O)[O-])C(C)N(Cc1ccccc1)CC3` (stereo unspecified), the TGI with DLD-1 colon, in the assay with LXFL 529 NSCLC and in the assay with SNB-78 CNS was over 100 µM each time.
